Reference: paper PMC3630091, “A Mechanistic Paradigm for Broad-Spectrum Antivirals that Target Virus-Cell Fusion” (PLoS Pathogens, 2013)
Where two headings read alike, the source gives them in different places.

How the values were obtained:
[1] = in vitro; conditions: human
[2] = tested on: HIV; assay: microbe, parasite or virus in culture; type: cell-based; conditions: Human immunodeficiency virus 1, 10 min
[3] = tested on: VSV; assay: microbe, parasite or virus in culture; type: cell-based; conditions: Vesicular stomatitis virus, 10 min, read-out: IC50 VSV
[4] = Membrane partition into HIV membrane-like mixture LUV (fluorescence); conditions: for IL / Iw: HIV-like mixture LUV, fluorescence intensity ratio from curve fitting
[5] = tested on: H1N1; assay: microbe, parasite or virus in culture; type: cell-based, Influenza A A/PR/8/34 (H1N1); conditions: read-out: IC50 H1N1
[6] = Pharmacokinetics in mice
[7] = tested on: EBOV; assay: microbe, parasite or virus in culture; type: cell-based, Ebola Zaire; conditions: Zaire ebolavirus, 10 min, read-out: IC50 EBOV
[8] = tested on: Ad5; type: cell-based, Adenovirus serotype 5; conditions: non-enveloped virus; 10 min white light exposure of treated virus
[9] = tested on: RVFV ZH501; type: in vivo, Balb/c mice
[10] = Singlet oxygen quenching measurements; type: physicochemical; conditions: 355 nm with C60 as external sensitizer; error is one standard deviation
[11] = tested on: NiV; assay: microbe, parasite or virus in culture; type: cell-based, Nipah virus Malaysia
[12] = Absorbance spectra / UV-visible spectra integration; type: physicochemical; conditions: for Abs Max (λmax): 100 µM in DMSO; for AUC (400-750 nm): integrated absorption divided by concentration, normalized relative to LJ001 (LJ001 = 100)
[13] = tested on: NDV; assay: microbe, parasite or virus in culture; type: cell-based, Newcastle disease virus; conditions: avian paramyxovirus 1, 10 min
[14] = tested on: RABV; assay: microbe, parasite or virus in culture; type: cell-based; conditions: Lyssavirus rabies, 10 min, read-out: IC50 RABV
[15] = tested on: HeV; assay: microbe, parasite or virus in culture; type: cell-based, Hendra virus; conditions: Henipavirus hendraense, 10 min, read-out: IC50 HeV
[16] = tested on: HIV-1JR-CSF; type: cell-based
[17] = Clinical observations after single dose in PK study; type: in vivo, female Balb/c mice
Protocol: Dose administration. […] These mice were replaced and the dose level was reduced to 5 mg/kg. […] Hypoactivity was the only clinical observation noted in some of the mice treated with the 3 test articles at 10 and 100 mg/kg po. […] These animals were replaced and administered with the lower ip dose level of 1.25 mg/kg and underwent blood collections. Mice received single ip doses of 1.25 mg/kg (JL109 and JL118) or 5 mg/kg (JL122) and po doses of 10 mg/kg (JL109, JL118, JL122), 50 mg/kg (JL109, JL118), or 100 mg/kg (JL109, JL118, JL122).

[18] = tested on: HSV; assay: microbe, parasite or virus in culture; type: cell-based, Herpes simplex virus-1; conditions: Human alphaherpesvirus 1, 10 min
[19] = Membrane partition into POPC LUV (fluorescence); conditions: for IL / Iw: POPC LUV, fluorescence intensity ratio from curve fitting
[20] = tested on: CMV; assay: microbe, parasite or virus in culture; type: cell-based, Cytomegalovirus (strain T3259)
[21] = tested on: SFV; assay: microbe, parasite or virus in culture; type: cell-based; conditions: Semliki Forest virus, BHK, 10 min, read-out: IC50 SFV
[22] = tested on: RVFV; assay: microbe, parasite or virus in culture; type: cell-based, Rift Valley fever MP-12 (vaccine strain); conditions: Rift Valley fever virus, 10 min, read-out: IC50 RVFV
[23] = Singlet oxygen quantum yield measurements; type: physicochemical; conditions: for 1O2 QY 355 nm: in CD2Cl2, excitation 355 nm; for 1O2 QY 355 nm / 1O2 QY 532 nm: error is one standard deviation; for 1O2 QY 532 nm: in CD2Cl2, excitation 532 nm
[24] = tested on: enveloped viruses; parameters: method as in PMID 20133606; conditions: non-cytotoxic concentrations; read-out: IC50, entry of numerous enveloped viruses; cited from earlier work
[25] = tested on: influenza virus A (A/PR/8/34 H1N1); conditions: 5 µM, light 1 h
[26] = tested on: VSV-ΔG-rluc pseudotyped with NiV envelope glycoproteins, F and G
[27] = Acrylamide quenching in POPC vesicles; type: physicochemical; conditions: >50-fold molar excess of lipid; 3 mM POPC vesicles
[28] = read-out: IC50 ± SD (nM) (N=x) HIV
[29] = Influenza A virus, H1N1, 10 min
[30] = Henipavirus nipahense, 10 min, read-out: IC50 NiV, 10 min white light exposure of treated virus
[31] = read-out: IC50 NiV, 10 min white light exposure of treated virus
[32] = read-out: IC50 ± SD (nM) (N=x) NDV
[33] = read-out: IC50 ± SD (nM) (N=x) HSV
[34] = Human betaherpesvirus 5, 10 min, read-out: IC50 CMV, 10 min white light exposure of treated virus

SMILES: CCN1C(=S)O/C(=C\c2ccc(-c3ccccc3OC)o2)C1=S [JL103, (Z) 3-Ethyl-5-[5-(2-methoxyphenyl)-furan-2-ylmethylene]oxazolid-ine-2,4-dithione]
- CC50 [1]: 9140 nM
- IC50 ([2]; read-out: IC50 HIV): 13 nM
- IC50 [2, 28]: 12.2 ± 9.7 nM
- IC50 [3]: 11 nM
- Kp at 10 min, 50 µM [4]: 310
- IL / Iw [4]: 68.29
- IC50 [5, 29]: 1.7 nM
- IC50 [5]: 2 nM
- bioavailability ([6]; female, Balb/c, mouse, in vivo, ip, 10 mg/kg): ~50%
- bioavailability ([6]; female, Balb/c, mouse, in vivo, po, 100 mg/kg): 3.1 to 105%
- improvements in relevant pharmacokinetic (PK) parameters compared to LJ001 ([6]; half-life, AUC, bioavailability, clearance): > 10 fold
- IC50 [7]: 185 nM
- IC50 Ad5 [8]: inactive
- time-to-death / survival compared to untreated controls ([9]; 20 pfu RVFV ZH501 IP, IP once a day for 7 days from 1 h post-challenge, JL118 1.25 mg/kg, JL122 and JL103 10 mg/kg): no significant effect on survival
- Median survival ([9]; 50 pfu RVFV ZH501 IP, 10 mg/kg IP at 1, 12, 24 and 48 h post-challenge, n = 5): 3 days
- kT × 10-7 [10]: 0.636 ± 0.030 M-1s-1
- IC50 [11, 30]: 3.9 nM
- IC50 [11, 31]: 4 nM
- Abs Max (λmax) [12]: 515 nm
- AUC (400-750 nm) [12]: 153
- total integrated absorption (AUC), times that of LJ001 ([12]; λ = 400 to 750 nm): 1.53 times
- IC50 ([13]; read-out: IC50 NDV): 4 nM
- IC50 [13, 32]: 5.7 ± 6.4 nM
- IC50 [14]: 260 nM
- IC50 [15]: 0.5 nM
- reduction of antiviral activity at physiological Hct [16]: > 50%
- clinical observations ([17]; single dose 10 mg/kg ip): appeared normal
- IC50 ([18]; read-out: IC50 HSV): 2 nM
- IC50 [18, 33]: 1.9 ± 2.5 nM
- Kp at 10 min, 50 µM [19]: 580
- IL / Iw [19]: 14.78
- IC50 [20, 34]: 5 nM
- IC50 ([20]; read-out: IC50 CMV, 10 min white light exposure of treated virus): 4 nM
- IC50 [21]: 44 nM
- IC50 [22]: 3 nM
- QY at 355 nm, times higher than LJ001 ([23]; 355 nm): about 2 times
- 1O2 QY 355 nm [23]: 0.36 ± 0.02
- 1O2 QY 532 nm [23]: 0.30 ± 0.03

SMILES: C=CCN1C(=O)/C(=C/c2ccc(-c3ccccc3)o2)SC1=S [LJ001, (Z)-3-allyl-5-((5-phenylfuran-2-yl)methylene)-2-thioxothiazolidin-4-one]
- CC50 [1]: 11900 nM
- IC50 ([2]; read-out: IC50 HIV): 133 nM
- IC50 [2, 28]: 182 ± 244 nM
- IC50 [3]: 298 nM
- Kp at 10 min, 50 µM [4]: 5190
- IL / Iw [4]: 2.41
- IC50 [5, 29]: 25.7 nM
- IC50 [5]: 26 nM
- clearance ([6]; female, Balb/c, mouse, in vivo): ~700 mL/min/kg
- half-life ([6]; female, Balb/c, mouse, in vivo): 12 min
- time post-dose up to which plasma levels were detectable ([6]; ip 5 mg/kg): ≤ 0.5 h
- time post-dose up to which plasma levels were detectable ([6]; iv 10 mg/kg): up to 1 hr
- IC50 [24]: ≤ 500 nM
- increase in the number of oxidized forms of unsaturated phospholipids compared to LJ025-treated samples [25]: up to 300 fold
- IC50 [7]: 900 nM
- kT × 10-7 [10]: 0.189 ± 0.010 M-1s-1
- IC50 [11, 30]: 47.5 nM
- IC50 [11, 31]: 48 nM
- Abs Max (λmax) [12]: 455 nm
- AUC (400-750 nm) [12]: 100
- IC50 ([13]; read-out: IC50 NDV): 95 nM
- IC50 [13, 32]: 181 ± 105 nM
- IC50 [14]: 5290 nM
- IC50 [15]: 18 nM
- t1/2 (inhibition half-life, time-of-addition) [26]: 67 min
- clinical observations ([17]; single dose 5 mg/kg ip): appeared normal
- clinical observations ([17]; single dose 10 mg/kg ip): 2 were sacrificed in moribund condition and 1 was found dead
- IC50 ([18]; read-out: IC50 HSV): 20 nM
- IC50 [18, 33]: 35.3 ± 48.3 nM
- fraction protected from the water-soluble quencher (acrylamide) [27]: over 85%
- IL / Iw [19]: 2.29
- IC50 [20, 34]: 147 nM
- IC50 [21]: 537 nM
- IC50 [22]: 20 nM
- 1O2 QY 355 nm [23]: 0.20 ± 0.02
- 1O2 QY 532 nm [23]: 0
